{"source": "patent US4818687A", "about": "(priority 1985, dated 1989)", "origin": "cited, not measured here", "test_system": "human liver cancer"}
{"smiles": "COc1cc2c(c3oc(=O)c4c(c13)CCC4=O)[C@@H]1C=CO[C@@H]1O2", "note": "[aflatoxin B1]", "values": [{"measurement": "association with human liver cancer", "value": "statistically associated with increased incidence of human liver cancer"}]}
